Reference: the supplement of paper PMC11061612

What was measured:
Experiment in all cases: combination Emax (second highest fraction inhibited in the dose matrix, 72 h); higher = more inhibition; extreme values may be limits of the assay
[1] = system: YAPC (Pancreatic Carcinoma)
Procedure, shortened: (§1)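 After 24 hours at 37°C and 5% CO2 in 1536-well plates, cells in DMEM/F12 or RPMI plus 10% FBS received two-drug dose matrices for 72 hours. Viability came from CellTiter-Glo 2.0 luminescence and was scaled as inhibition, anchored at 0 by vehicle wells and at 1 by blank wells. Combination Emax is taken as the second-highest inhibition in the matrix, and Bliss excess as the observed combination effect less EA + EB − EA·EB, with EA and EB the single-agent effects.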

KS-1 (Glioblastoma) = system: KS-1 (Glioblastoma)
Procedure, shortened: as §1

BPH-1 (Non-Cancerous) = system: BPH-1 (Non-Cancerous)
Procedure, shortened: as §1

NCI-H2052 (Mesothelioma) = system: NCI-H2052 (Mesothelioma)
Procedure, shortened: as §1

MPP-89 (Mesothelioma) = system: MPP-89 (Mesothelioma)
Procedure, shortened: as §1

GAMG (Glioblastoma) = system: GAMG (Glioblastoma)
Procedure, shortened: as §1

NCI-H2722 (Mesothelioma) = system: NCI-H2722 (Mesothelioma)
Procedure, shortened: as §1

[2] = system: LCLC-97TM1 (Non-Small Cell Lung Carcinoma)
Procedure, shortened: as §1

[3] = system: Detroit562 (Head and Neck Carcinoma)
Procedure, shortened: as §1

[4] = system: FTC-133 (Thyroid Gland Carcinoma)
Procedure, shortened: as §1

Compound | combination Emax [1] | combination Emax (KS-1 (Glioblastoma)) | combination Emax (BPH-1 (Non-Cancerous)) | combination Emax (NCI-H2052 (Mesothelioma)) | combination Emax (MPP-89 (Mesothelioma)) | combination Emax (GAMG (Glioblastoma)) | combination Emax (NCI-H2722 (Mesothelioma)) | combination Emax [2] | combination Emax [3] | combination Emax [4]
Cc1c2c(nn1C)CSCc1cc(n(C)n1)CSc1cc(c3ccccc3c1)OCCCc1c(C(=O)O)n(C)c3c-2c(Cl)ccc13 [AZD5991] + C[C@@H](Nc1cc(F)cc(F)c1)c1cc(C(=O)N(C)C)cc2c(=O)cc(N3CCOCC3)oc12 [AZD8186] (first compound max 1 µM, 7x7, partner max 3 µM) | 0.182 | 0.416 | 0.461 | 0.374 | 0.22 | 0.585 | 0.197 | 0.221 | 0.305 | 0.667
CC1(C)CCC(CN2CCN(c3ccc(C(=O)NS(=O)(=O)c4ccc(NCC5CCOCC5)c([N+](=O)[O-])c4)c(Oc4cnc5[nH]ccc5c4)c3)CC2)=C(c2ccc(Cl)cc2)C1 [Venetoclax] + CCN(CCO)CCCOc1ccc2c(Nc3cc(CC(=O)Nc4cccc(F)c4)[nH]n3)ncnc2c1 [AZD2811] (first compound max 1 µM, 7x7, partner max 1 µM) | 0.157 | 0.341 | 0.416 | 0.181 | 0.284 | 0.598 | 0.23 | 0.289 | 0.52 | 0.495
CN(CCO)CC[C@H](CSc1ccccc1)Nc1ccc(S(=O)(=O)NC(=O)c2ccc(N3CCC([C@@H](O)c4ccccc4-c4ccc(Cl)cc4)CC3)cc2)cc1S(=O)(=O)C(F)(F)F [AZD4320] + C1CN(CCC1(C(=O)N[C@@H](CCO)C2=CC=C(C=C2)Cl)N)C3=NC=NC4=C3C=CN4 [Capivasertib] (first compound max 1 µM, 7x7, partner max 3 µM) | 0.0702 | 0.296 | 0.562 | 0.229 | 0.198 | 0.407 | 0.22 | 0.335 | 0.414 | 0.517
CC1(C)CCC(CN2CCN(c3ccc(C(=O)NS(=O)(=O)c4ccc(NCC5CCOCC5)c([N+](=O)[O-])c4)c(Oc4cnc5[nH]ccc5c4)c3)CC2)=C(c2ccc(Cl)cc2)C1 [Venetoclax] + COc1cc(Nc2ncc3c(n2)-c2ccc(Cl)cc2C(c2c(F)cccc2OC)=NC3)ccc1C(=O)O [Alisertib] (first compound max 1 µM, 7x7, partner max 10 µM) | 0.142 | 0.635 | 0.745 | 0.425 | 0.566 | 0.662 | 0.281 | 0.497 | 0.754 | 0.416
Cn1cnc2c(F)c(Nc3ccc(Br)cc3Cl)c(C(=O)NOCCO)cc21 [Selumetinib] + C[C@@H]1COCCN1C2=NC(=NC(=C2)C3(CC3)[S@](=N)(=O)C)C4=C5C=CNC5=NC=C4 [AZD6738] (first compound max 10 µM, 7x7, partner max 10 µM) | 0.22 | 0.334 | 0.503 | 0.395 | 0.329 | 0.469 | 0.277 | 0.756 | 0.88 | 0.724
CC1(C)CCC(CN2CCN(c3ccc(C(=O)NS(=O)(=O)c4ccc(NCC5CCOCC5)c([N+](=O)[O-])c4)c(Oc4cnc5[nH]ccc5c4)c3)CC2)=C(c2ccc(Cl)cc2)C1 [Venetoclax] + Cn1cnc2c(F)c(Nc3ccc(Br)cc3Cl)c(C(=O)NOCCO)cc21 [Selumetinib] (first compound max 1 µM, 7x7, partner max 3 µM) | 0.145 | 0.261 | 0.572 | 0.213 | 0.159 | 0.157 | 0.14 | 0.458 | 0.321 | 0.133
NC1(C(=O)N[C@@H](CCO)c2ccc(Cl)cc2)CCN(c2ncnc3[nH]ccc23)CC1 [Capivasertib] + CCN(CCO)CCCOc1ccc2c(Nc3cc(CC(=O)Nc4cccc(F)c4)[nH]n3)ncnc2c1 [AZD2811] (first compound max 10 µM, 7x7, partner max 1 µM) | 0.233 | 0.547 | 0.587 | 0.427 | 0.435 | 0.669 | 0.515 | 0.686 | 0.892 | 0.643
COc1nnc2ccc(N3CCC(c4ccc(OCCN5CCN(C)C(=O)[C@H]5C)cc4)CC3)nn12 [AZD5153] + Cn1cnc2c(F)c(Nc3ccc(Br)cc3Cl)c(C(=O)NOCCO)cc21 [Selumetinib] (first compound max 1 µM, 7x7, partner max 10 µM) | 0.477 | 0.645 | 0.87 | 0.403 | 0.554 | 0.527 | 0.516 | 0.848 | 0.792 | 0.592
Cc1c2c(nn1C)CSCc1cc(n(C)n1)CSc1cc(c3ccccc3c1)OCCCc1c(C(=O)O)n(C)c3c-2c(Cl)ccc13 [AZD5991] + Cn1cnc2c(F)c(Nc3ccc(Br)cc3Cl)c(C(=O)NOCCO)cc21 [Selumetinib] (first compound max 1 µM, 7x7, partner max 3 µM) | 0.209 | 0.31 | 0.604 | 0.314 | 0.193 | 0.299 | 0.238 | 0.694 | 0.365 | 0.738
CN(CCO)CC[C@H](CSc1ccccc1)Nc1ccc(S(=O)(=O)NC(=O)c2ccc(N3CCC([C@@H](O)c4ccccc4-c4ccc(Cl)cc4)CC3)cc2)cc1S(=O)(=O)C(F)(F)F [AZD4320] + Cn1cnc2c(F)c(Nc3ccc(Br)cc3Cl)c(C(=O)NOCCO)cc21 [Selumetinib] (first compound max 1 µM, 7x7, partner max 3 µM) | 0.194 | 0.341 | 0.784 | 0.262 | 0.399 | 0.296 | 0.508 | 0.489 | 0.637 | 0.74
NC1(C(=O)N[C@@H](CCO)c2ccc(Cl)cc2)CCN(c2ncnc3[nH]ccc23)CC1 [Capivasertib] + CC(=O)c1c(C)c2cnc(Nc3ccc(N4CCNCC4)cn3)nc2n(C2CCCC2)c1=O [Palbociclib] (first compound max 10 µM, 7x7, partner max 10 µM) | 0.281 | 0.5 | 0.518 | 0.419 | 0.382 | 0.596 | 0.326 | 0.583 | 0.783 | 0.565
Cc1c2c(nn1C)CSCc1cc(n(C)n1)CSc1cc(c3ccccc3c1)OCCCc1c(C(=O)O)n(C)c3c-2c(Cl)ccc13 [AZD5991] + Cc1cc2ncnn2cc1Nc1ncc2c(n1)n(C1CCOCC1)c(=O)n2C [AZD7648] (first compound max 1 µM, 7x7, partner max 10 µM) | 0.248 | 0.253 | 0.409 | 0.394 | 0.343 | 0.382 | 0.234 | 0.385 | 0.422 | 0.649
Cc1c2c(nn1C)CSCc1cc(n(C)n1)CSc1cc(c3ccccc3c1)OCCCc1c(C(=O)O)n(C)c3c-2c(Cl)ccc13 [AZD5991] + CCN(CCO)CCCOc1ccc2c(Nc3cc(CC(=O)Nc4cccc(F)c4)[nH]n3)ncnc2c1 [AZD2811] (first compound max 1 µM, 7x7, partner max 1 µM) | 0.238 | 0.286 | 0.873 | 0.265 | 0.248 | 0.534 | 0.29 | 0.722 | 0.951 | 0.761
Cc1c2c(nn1C)CSCc1cc(n(C)n1)CSc1cc(c3ccccc3c1)OCCCc1c(C(=O)O)n(C)c3c-2c(Cl)ccc13 [AZD5991] + CN(C)CCCOc1ccc(-c2ccc3ncc4c(c3c2)n(C2CCOCC2)c(=O)n4C)cn1 [AZD0156] (first compound max 1 µM, 7x7, partner max 1 µM) | 0.169 | 0.225 | 0.733 | 0.285 | 0.182 | 0.255 | 0.243 | 0.286 | 0.269 | 0.719
Cn1cnc2c(F)c(Nc3ccc(Br)cc3Cl)c(C(=O)NOCCO)cc21 [Selumetinib] + CCN(CCO)CCCOc1ccc2c(Nc3cc(CC(=O)Nc4cccc(F)c4)[nH]n3)ncnc2c1 [AZD2811] (first compound max 10 µM, 7x7, partner max 1 µM) | 0.212 | 0.298 | 0.624 | 0.232 | 0.204 | 0.52 | 0.186 | 0.647 | 0.743 | 0.415
CC(=O)c1c(C)c2cnc(Nc3ccc(N4CCNCC4)cn3)nc2n(C2CCCC2)c1=O [Palbociclib] + Cc1c2c(nn1C)CSCc1cc(n(C)n1)CSc1cc(c3ccccc3c1)OCCCc1c(C(=O)O)n(C)c3c-2c(Cl)ccc13 [AZD5991] (first compound max 10 µM, 7x7, partner max 1 µM) | 0.288 | 0.266 | 0.281 | 0.304 | 0.261 | 0.305 | 0.213 | 0.263 | 0.569 | 0.18
CC1(C)CCC(CN2CCN(c3ccc(C(=O)NS(=O)(=O)c4ccc(NCC5CCOCC5)c([N+](=O)[O-])c4)c(Oc4cnc5[nH]ccc5c4)c3)CC2)=C(c2ccc(Cl)cc2)C1 [Venetoclax] + C1CN(CCC1(C(=O)N[C@@H](CCO)C2=CC=C(C=C2)Cl)N)C3=NC=NC4=C3C=CN4 [Capivasertib] (first compound max 1 µM, 7x7, partner max 3 µM) | 0.124 | 0.303 | 0.382 | 0.329 | 0.375 | 0.505 | 0.162 | 0.298 | 0.346 | 0.358
CS(=O)(=O)CCNCc1ccc(-c2ccc3ncnc(Nc4ccc(OCc5cccc(F)c5)c(Cl)c4)c3c2)o1 [Lapatinib] + C[C@@H](Oc1cc(-c2cnn(C3CCNCC3)c2)cnc1N)c1c(Cl)ccc(F)c1Cl [Crizotinib] (first compound max 10 µM, 7x7, partner max 10 µM) | 0.636 | 0.79 | 0.949 | 0.61 | 0.696 | 0.82 | 0.449 | 0.979 | 1 | 0.84
COc1nnc2ccc(N3CCC(c4ccc(OCCN5CCN(C)C(=O)[C@H]5C)cc4)CC3)nn12 [AZD5153] + CCN(CCO)CCCOc1ccc2c(Nc3cc(CC(=O)Nc4cccc(F)c4)[nH]n3)ncnc2c1 [AZD2811] (first compound max 1 µM, 7x7, partner max 1 µM) | 0.342 | 0.641 | 0.844 | 0.395 | 0.467 | 0.609 | 0.521 | 0.764 | 0.892 | 0.678
